# According to ChEMBL document CHEMBL1143820, “Mutations in 16S rRNA and ribosomal protein S5 associated with high-level spectinomycin resistance in Pasteurella multocida” (2007):
# Key:
# Type in all cases: functional
# Pasteurella multocida [1] = experiment: Antibacterial activity against Pasteurella multocida isolate 13 with loss of 23K in S5 protein by CLSI M31-A2 method
# Pasteurella multocida [2] = experiment: Antibacterial activity against Pasteurella multocida isolate 17 by CLSI M31-A2 method
# Pasteurella multocida [3] = experiment: Antibacterial activity against Pasteurella multocida isolate 8 with operon A,B,C,D,E 16S rRNA C1192G transversion mutation by CLSI M31-A2 method
# Pasteurella multocida [4] = experiment: Antibacterial activity against Pasteurella multocida isolate 3 with operon A,B,C,D,E,F 16S rRNA C1192G transversion mutation by CLSI M31-A2 method
# Pasteurella multocida [5] = experiment: Antibacterial activity against Pasteurella multocida isolate 11 with operon B,C 16S rRNA C1192G transversion mutation and S5 protein 32-SF-33>32I mutation by CLSI M31-A2 method
# Pasteurella multocida [6] = experiment: Antibacterial activity against Pasteurella multocida isolate 10 with operon B,C 16S rRNA C1192G transversion mutation and S5 protein 32-SF-33>32I mutation by CLSI M31-A2 method
# Pasteurella multocida [7] = experiment: Antibacterial activity against Pasteurella multocida isolate 7 with operon A,B,C,D,E 16S rRNA C1192G transversion mutation by CLSI M31-A2 method
# Pasteurella multocida [8] = experiment: Antibacterial activity against Pasteurella multocida isolate 5 with operon A,B,C,D,E,F 16S rRNA C1192G transversion mutation by CLSI M31-A2 method
# Pasteurella multocida [9] = experiment: Antibacterial activity against Pasteurella multocida isolate 12 with operon B,C 16S rRNA C1192G transversion mutation and S5 protein 32-SF-33>32I mutation by CLSI M31-A2 method
# Pasteurella multocida [10] = experiment: Antibacterial activity against Pasteurella multocida isolate 1 with operon A,B,C,D,E,F 16S rRNA C1192G transversion mutation by CLSI M31-A2 method
# Pasteurella multocida [11] = experiment: Antibacterial activity against Pasteurella multocida isolate 9 with operon B,C 16S rRNA C1192G transversion mutation and S5 protein 32-SF-33>32I mutation by CLSI M31-A2 method
# Pasteurella multocida [12] = experiment: Antibacterial activity against Pasteurella multocida isolate 16 by CLSI M31-A2 method
# Pasteurella multocida [13] = experiment: Antibacterial activity against Pasteurella multocida isolate 6 with operon A,B,C,D,E 16S rRNA C1192G transversion mutation by CLSI M31-A2 method
# Pasteurella multocida [14] = experiment: Antibacterial activity against Pasteurella multocida isolate 2 with operon A,B,C,D,E,F 16S rRNA C1192G transversion mutation by CLSI M31-A2 method
# Pasteurella multocida [15] = experiment: Antibacterial activity against Pasteurella multocida isolate 4 with operon A,B,C,D,E,F 16S rRNA C1192G transversion mutation by CLSI M31-A2 method
# Pasteurella multocida [16] = experiment: Antibacterial activity against Pasteurella multocida isolate 14 by CLSI M31-A2 method
# Pasteurella multocida [17] = experiment: Antibacterial activity against Pasteurella multocida isolate 15 by CLSI M31-A2 method
structure (smiles),measurement,setting,value
CN[C@@H]1[C@H](O)[C@H](NC)[C@H]2O[C@@]3(O)C(=O)C[C@@H](C)O[C@H]3O[C@@H]2[C@H]1O [SPECTINOMYCIN],MIC,Pasteurella multocida [1],4100 µg/mL
same,MIC,Pasteurella multocida [2],16 µg/mL
same,MIC,Pasteurella multocida [3],4100 µg/mL
same,MIC,Pasteurella multocida [4],> 8190 µg/mL
same,MIC,Pasteurella multocida [5],> 8190 µg/mL
same,MIC,Pasteurella multocida [6],> 8190 µg/mL
same,MIC,Pasteurella multocida [7],8190 µg/mL
same,MIC,Pasteurella multocida [8],> 8190 µg/mL
same,MIC,Pasteurella multocida [9],> 8190 µg/mL
same,MIC,Pasteurella multocida [10],> 8190 µg/mL
same,MIC,Pasteurella multocida [11],4100 µg/mL
same,MIC,Pasteurella multocida [12],16 µg/mL
same,MIC,Pasteurella multocida [13],4100 µg/mL
same,MIC,Pasteurella multocida [14],> 8190 µg/mL
same,MIC,Pasteurella multocida [15],> 8190 µg/mL
same,MIC,Pasteurella multocida [16],16 µg/mL
same,MIC,Pasteurella multocida [17],16 µg/mL
